Results: patent publication US11001590B2, “Pyrazolopyrimidine derivatives” (BAYER ANIMAL HEALTH GMBH, priority 2016, dated 2021)

Test system: not listed separately
Test: log P by HPLC on reversed phase columns (Method L0; [a] acidic, [b] neutral range)
Conditions: HPLC on reversed phase columns (Method L0)
Protocol: Calibration was done with straight-chain alkan-2-ones (with 3 to 16 carbon atoms) with known log P values (measurement of log P values using retention times with linear interpolation between successive alkanones). Lambda-max-values were determined using UV-spectra from 200 nm to 400 nm and the peak values of the chromatographic signals.

Row | SMILES | log P
1 | CC(C)Sc1nn2c(C(C)C)c(C(=O)N[C@H]3CCOc4ccccc43)cnc2c1-c1cc(Cl)cc(Cl)c1 [Example 198] | 7
2 | CC(C)Sc1nn2c(C(C)C)c(C(=O)N[C@H]3CCc4ccccc43)cnc2c1-c1cc(Cl)cc(Cl)c1 [Example 199] | 7.34
3 | CCSc1nn2c(C(C)C)c(C(=O)N[C@H]3CCOc4ccccc43)cnc2c1-c1cc(Cl)cc(Cl)c1 [Example 200] | 6.71
4 | CCSc1nn2c(C(C)C)c(C(=O)N[C@H]3CCc4ccccc43)cnc2c1-c1cc(Cl)cc(Cl)c1 [Example 201] | 6.93
5 | CC(C)c1c(C(=O)N[C@H]2CCc3ccccc32)cnc2c(-c3cc(Cl)cc(Cl)c3)c(S(=O)(=O)C(C)C)nn12 [Example 214] | 4.85
6 | Cc1nn2c(C(C)C)c(C(=O)N[C@H]3CCOc4ccccc43)cnc2c1-c1ccc2c(c1)CCC2=O [Example 250] | 3.75
7 | Cc1nc2c(-c3cc(Cl)cc(Cl)c3)c(C)nn2c(C)c1C(=O)N[C@H]1CCOc2ccccc21 [Example 268] | 4.76

Same assay, conditions: HPLC on reversed phase columns (Method L0); last column of Table 1, column head not shown

Row | SMILES | log P
8 | Cc1nn2c(C(F)(F)F)c(C(=O)N[C@H]3CCc4ccccc43)cnc2c1-c1c(F)cccc1F [Example 410] | 4.16
9 | CC(C)c1c(C(=O)N[C@H]2CCc3ccccc32)cnc2c(-c3cccc(Cl)c3)c(C3CC3)nn12 [Example 411] | 5.87
10 | Cc1nn2c(C(F)(F)F)c(C(=O)N[C@H]3CCc4ccccc43)cnc2c1-c1ccccc1Cl [Example 412] | 4.43
11 | CC(C)c1c(C(=O)N[C@H]2CCc3ccccc32)cnc2c(-c3ccccc3Cl)c(C3CC3)nn12 [Example 414] | 5.87
12 | CC(C)c1c(C(=O)N[C@H]2CCc3ccccc32)cnc2c(-c3cccc(C(F)(F)F)c3)c(C3CC3)nn12 [Example 415] | 5.94
13 | CC(C)c1c(C(=O)N[C@H]2CCc3ccccc32)cnc2c(-c3cccc(F)c3)c(C3CC3)nn12 [Example 416] | 5.41
14 | Cc1nn2c(C(C)C)c(C(=O)N[C@H]3CCc4ccccc43)cnc2c1-n1cccn1 [Example 426] | 3.29
15 | COc1c(C(=O)N[C@H]2CCc3ccccc32)cnc2c(-c3c(F)cccc3Cl)c(C)nn12 [Example 513] | 2.96

Same assay, conditions: HPLC on reversed phase columns, Method L0, [a] acidic range

Row | SMILES | logP (Method L0) [a]
16 | Cc1c(C(=O)N[C@H]2CCCc3ccccc32)cnc2c(-c3cccc(Cl)c3)cnn12 [Example 44] | 4.33
17 | O=C(N[C@H]1CCc2ccccc21)c1cnc2c(-c3cc(Cl)cc(Cl)c3)cnn2c1 [Example 47] | 4.74
18 | CC(C)c1c(C(=O)N[C@H]2CCc3ccccc32)cnc2c(-c3ccc(Cl)cc3)c(C(F)(F)F)nn12 [Example 49] | 5.48
19 | O=C(N[C@H]1CCc2ccccc21)c1cnc2c(-c3cccc(Cl)c3)c(C(F)(F)F)nn2c1 [Example 50] | 4.57
20 | CC(C)c1c(C(=O)N[C@H]2CCCc3ccccc32)cnc2c(-c3cccc(Cl)c3)c(C(F)(F)F)nn12 [Example 51] | 5.74
21 | Cc1c(C(=O)N[C@H]2CCc3ccccc32)cnc2c(-c3cccc(Cl)c3)cnn12 [Example 52] | 4.04
22 | Cc1c(C(=O)N[C@H]2CCCc3ccccc32)cnc2c(-c3ccc(Cl)cc3)c(C(F)(F)F)nn12 [Example 53] | 4.97
23 | CC(C)c1c(C(=O)N[C@H]2CCCc3ccccc32)cnc2c(-c3ccc(Cl)cc3)c(C(F)(F)F)nn12 [Example 54] | 5.76
24 | Cc1c(C(=O)N[C@H]2CCc3ccccc32)cnc2c(-c3cccc(Cl)c3)c(C(F)(F)F)nn12 [Example 55] | 4.68
25 | Cc1c(C(=O)N[C@H]2CCc3ccccc32)cnc2c(-c3ccc(Cl)cc3)c(C(F)(F)F)nn12 [Example 57] | 4.7
26 | Cc1c(C(=O)N[C@H]2CCCc3ccccc32)cnc2c(-c3cccc(Cl)c3)c(Cl)nn12 [Example 58] | 4.9
27 | CC(C)c1c(C(=O)N[C@H]2CCCc3ccccc32)cnc2c(-c3cc(Cl)cc(Cl)c3)c(Cl)nn12 [Example 64] | 6.69
28 | Cc1c(C(=O)N[C@H]2CCc3ccccc32)cnc2c(-c3cc(Cl)cc(Cl)c3)cnn12 [Example 65] | 4.84
29 | Cc1c(C(=O)N[C@H]2CCc3ccccc32)cnc2c(-c3cc(Cl)cc(Cl)c3)c(Cl)nn12 [Example 66] | 5.47
30 | O=C(N[C@H]1CCc2ccccc21)c1cnc2c(-c3cc(Cl)cc(Cl)c3)c(Cl)nn2c1 [Example 67] | 5.39
31 | Cc1c(C(=O)N[C@H]2CCCc3ccccc32)cnc2c(-c3cc(Cl)cc(Cl)c3)c(Cl)nn12 [Example 68] | 5.78
32 | Cc1c(C(=O)N[C@H]2CCCc3ccccc32)cnc2c(-c3cccc(C(F)(F)F)c3)c(Cl)nn12 [Example 69] | 5.03
33 | Cc1c(C(=O)N[C@H]2CCc3ccccc32)cnc2c(-c3cccc(C(F)(F)F)c3)c(Cl)nn12 [Example 71] | 4.73
34 | Cc1c(C(=O)N[C@H]2CCc3ccccc32)cnc2c(-c3cccc(Cl)c3)c(Cl)nn12 [Example 75] | 4.6

Row | SMILES | logP (Method L0) [a]
35 | CC(C)c1c(C(=O)N[C@H]2CCCc3ccccc32)cnc2c(-c3ccc(Cl)cc3)c(Cl)nn12 [Example 76] | 5.79
36 | O=C(N[C@H]1CCc2ccccc21)c1cnc2c(-c3ccc(Cl)cc3)c(C(F)(F)F)nn2c1 [Example 80] | 4.61
37 | Cc1c(C(=O)N[C@H]2CCCc3ccccc32)cnc2c(-c3cc(Cl)cc(Cl)c3)c(C(F)(F)F)nn12 [Example 82] | 5.66
38 | Cc1c(C(=O)N[C@H]2CCCc3ccccc32)cnc2c(-c3cccc(C(F)(F)F)c3)c(C(F)(F)F)nn12 [Example 83] | 5.03
39 | O=C(N[C@H]1CCc2ccccc21)c1cnc2c(-c3ccccc3Cl)c(C(F)(F)F)nn2c1 [Example 84] | 4.15
40 | Cc1c(C(=O)N[C@H]2CCc3ccccc32)cnc2c(-c3cccc(C(F)(F)F)c3)c(C(F)(F)F)nn12 [Example 85] | 4.77
41 | Cc1c(C(=O)N[C@H]2CCCc3ccccc32)cnc2c(-c3cccc(Cl)c3)c(C(F)(F)F)nn12 [Example 86] | 4.94
42 | O=C(N[C@H]1CCc2ccccc21)c1cnc2c(-c3cccc(C(F)(F)F)c3)c(C(F)(F)F)nn2c1 [Example 87] | 4.66
43 | Cc1c(C(=O)N[C@H]2CCCc3ccccc32)cnc2c(-c3ccccc3Cl)c(C(F)(F)F)nn12 [Example 90] | 4.5
44 | Cc1nn2c(C(C)C)c(C(=O)N[C@H]3CCOc4ccc(Cl)cc43)cnc2c1-c1ccc(Cl)cc1 [Example 106] | 5.36
45 | Cc1ccc2c(c1)[C@@H](NC(=O)c1cnc3c(-c4cccc(Cl)c4)c(C)nn3c1C(C)C)CCC2 [Example 109] | 5.9
46 | Cc1ccc2c(c1)[C@@H](NC(=O)c1cnc3c(-c4ccc(F)c(F)c4)c(C)nn3c1C(C)C)CCC2 [Example 112] | 5.55
47 | Cc1ccc2c(c1)[C@@H](NC(=O)c1cnc3c(-c4ccc(Cl)cc4)c(C)nn3c1C(C)C)CCC2 [Example 113] | 5.88
48 | Cc1nn2c(C(C)C)c(C(=O)N[C@H]3CCc4ccccc43)cnc2c1-c1ccc(Cl)c(C(=O)NC2CC2)c1 [Example 120] | 3.78
49 | CC(C)c1c(C(=O)N[C@H]2CCOc3ccccc32)cnc2c(-c3cnn(CC(F)(F)F)c3)c(C(F)(F)F)nn12 [Example 129] | 4.21
50 | CC(C)c1c(C(=O)N[C@H]2CCc3ccccc32)cnc2c(-c3ccc(F)nc3)c(C(F)(F)F)nn12 [Example 161] | 4.35
51 | CC(C)c1c(C(=O)N[C@H]2CCc3ccccc32)cnc2c(-c3ccc(F)cc3)c(C(F)(F)F)nn12 [Example 162] | 4.95
52 | CC(C)c1c(C(=O)N[C@H]2CCc3ccccc32)cnc2c(-c3cnc(F)c(F)c3)c(C(F)(F)F)nn12 [Example 163] | 4.76
53 | CC(C)c1c(C(=O)N[C@H]2CCc3ccccc32)cnc2c(-c3ccc(Cl)nc3)c(C(F)(F)F)nn12 [Example 164] | 4.7

Target: C. elegans Slo-1a (Caenorhabditis elegans, UniProt Q95V25)
Test: In vitro assay 1: C. elegans Slo-1a, action at a recombinant C. elegans CHO cell line (membrane potential measurement)
Conditions: CHO cells expressing C. elegans Slo-1a; voltage sensitive dye, FLIPR Tetra; negative decadic logarithm of EC50

Sequence of C. elegans Slo-1a (Q95V25 whole entry): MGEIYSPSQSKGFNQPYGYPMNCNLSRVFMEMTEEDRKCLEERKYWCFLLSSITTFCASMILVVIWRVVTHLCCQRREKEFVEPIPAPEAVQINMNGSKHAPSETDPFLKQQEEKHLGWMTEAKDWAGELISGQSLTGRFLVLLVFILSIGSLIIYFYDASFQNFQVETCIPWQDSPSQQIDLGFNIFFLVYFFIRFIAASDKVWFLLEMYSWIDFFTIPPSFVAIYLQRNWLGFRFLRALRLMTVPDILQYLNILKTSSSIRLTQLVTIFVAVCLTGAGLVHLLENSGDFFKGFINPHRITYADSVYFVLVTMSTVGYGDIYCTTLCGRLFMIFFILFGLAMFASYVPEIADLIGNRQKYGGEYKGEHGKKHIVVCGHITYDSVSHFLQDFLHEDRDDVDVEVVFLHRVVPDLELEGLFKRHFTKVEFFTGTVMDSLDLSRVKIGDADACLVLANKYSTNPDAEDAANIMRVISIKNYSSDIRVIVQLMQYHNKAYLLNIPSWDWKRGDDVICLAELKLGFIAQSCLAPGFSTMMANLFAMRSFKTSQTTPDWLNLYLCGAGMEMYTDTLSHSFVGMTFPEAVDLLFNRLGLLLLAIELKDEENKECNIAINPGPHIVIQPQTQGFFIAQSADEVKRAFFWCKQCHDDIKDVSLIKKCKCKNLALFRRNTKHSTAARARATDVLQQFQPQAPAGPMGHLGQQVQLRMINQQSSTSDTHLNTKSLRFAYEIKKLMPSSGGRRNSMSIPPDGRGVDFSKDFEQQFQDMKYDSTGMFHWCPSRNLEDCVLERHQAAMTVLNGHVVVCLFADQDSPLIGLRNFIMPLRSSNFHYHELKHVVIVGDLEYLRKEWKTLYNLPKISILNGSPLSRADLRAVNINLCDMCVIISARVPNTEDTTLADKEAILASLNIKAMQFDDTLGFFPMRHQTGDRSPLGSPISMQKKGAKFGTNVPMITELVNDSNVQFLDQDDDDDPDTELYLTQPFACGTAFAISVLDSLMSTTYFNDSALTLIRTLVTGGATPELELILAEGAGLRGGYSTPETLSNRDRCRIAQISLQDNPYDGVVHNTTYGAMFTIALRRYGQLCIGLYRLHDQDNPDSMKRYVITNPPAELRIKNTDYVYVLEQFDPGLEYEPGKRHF

Row | SMILES | pE50
54 | Cc1nn2c(N3CCOCC3)c(C(=O)N[C@H]3CCOc4ccccc43)cnc2c1-c1ccc(F)c(N(C)C)c1F [Example 543] | 8.6
55 | Cc1nn2c(N3CCOCC3)c(C(=O)N[C@H]3CCOc4ccccc43)cnc2c1-c1c(Cl)cccc1Cl [Example 544] | 8.3
56 | Cc1nn2c(N3CCOCC3)c(C(=O)N[C@H]3CCOc4ccccc43)cnc2c1-c1c(F)ccc(Cl)c1F [Example 545] | 8.8
57 | Cc1nn2c(N(C)C)c(C(=O)N[C@H]3CCOc4ccccc43)cnc2c1-c1cc(C(F)(F)F)ccc1F [Example 547] | 8.9
58 | Cc1nn2c(N(C)C)c(C(=O)N[C@H]3CCOc4ccccc43)cnc2c1-c1cccc(F)c1F [Example 549] | 8.4
59 | Cc1nn2c(N(C)C)c(C(=O)N[C@H]3CCOc4ccccc43)cnc2c1-c1ccc(F)c(N(C)C)c1F [Example 550] | 8.7
60 | COc1c(F)ccc(-c2c(C)nn3c(N(C)C)c(C(=O)N[C@H]4CCOc5ccccc54)cnc23)c1F [Example 551] | 8.9
61 | Cc1nn2c(N(C)C)c(C(=O)N[C@H]3CCOc4ccccc43)cnc2c1-c1cccc(Cl)c1F [Example 552] | 8.7
62 | Cc1ccccc1-c1c(C)nn2c(N(C)C)c(C(=O)N[C@H]3CCOc4ccccc43)cnc12 [Example 553] | 8.2
63 | Cc1nn2c(N(C)C)c(C(=O)N[C@H]3CCOc4ccccc43)cnc2c1-c1c(F)ccc(F)c1F [Example 554] | 8.7
64 | Cc1nn2c(N(C)C3CC3)c(C(=O)N[C@H]3CCOc4ccccc43)cnc2c1-c1cc(Cl)cc(Cl)c1 [Example 555] | 7.6
65 | Cc1nn2c(N(C)CCN3CCCC3=O)c(C(=O)N[C@H]3CCOc4ccccc43)cnc2c1-c1cc(Cl)cc(Cl)c1 [Example 560] | 8.2
66 | COCCOCCOCCN(C)c1c(C(=O)N[C@H]2CCOc3ccccc32)cnc2c(-c3cc(Cl)cc(Cl)c3)c(C)nn12 [Example 561] | 8.2
